Experimental data reported in patent publication US20110105389A1 (priority 2009, published 2011).
Like-named read-outs stand apart in the source and are kept apart here.

How the values were obtained:
[1] = target: T1, human ghrelin receptor (GRLN, growth hormone secretagogue receptor, hGHS-R1a) (Homo sapiens, UniProt Q92847); experiment: Competitive radioligand binding assay (ghrelin receptor), Method B1
T1 construct: purchased PerkinElmer BioSignal #RBHGHSM, lot#1887; host or cells: HEK-293 cells, stably transfected (membranes)
T1 sequence (Q92847 whole entry): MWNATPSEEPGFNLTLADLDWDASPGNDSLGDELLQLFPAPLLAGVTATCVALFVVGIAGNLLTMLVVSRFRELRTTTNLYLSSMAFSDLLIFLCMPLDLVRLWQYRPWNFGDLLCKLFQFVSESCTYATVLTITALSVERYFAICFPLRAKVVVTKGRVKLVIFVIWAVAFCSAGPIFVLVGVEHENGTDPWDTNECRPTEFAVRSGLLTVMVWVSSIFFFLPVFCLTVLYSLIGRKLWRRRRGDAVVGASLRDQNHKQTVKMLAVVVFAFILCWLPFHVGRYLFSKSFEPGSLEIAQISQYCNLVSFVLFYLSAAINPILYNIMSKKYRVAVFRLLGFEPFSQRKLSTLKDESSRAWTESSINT
Outline: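 Filtration competition format: bound radioactivity counted after GF/C harvesting and cold 50 mM Tris-HCl washes. Incubation lasted 30 min at room temperature in Hepes pH 7.4 buffer with Ca2+, Mg2+, EDTA and 0.4% BSA (DMSO ≤0.1% final); values from variable-slope non-linear regression.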

[2] = target: T2, GHS-R1a receptor (HEK293 cells expressing GHS-R1a receptor) (Homo sapiens, UniProt Q92847); experiment: Fluorescence functional assay (ghrelin receptor), Method B2, agonist and antagonist mode; type: cell-based; settings: functional activity as an antagonist at the ghrelin receptor, Methods B2 and B3
T2 construct: host or cells: HEK293
T2 sequence (Q92847 whole entry): as above
Outline: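 Calcium flux read by ImageTrak epifluorescence in HEK293 cells stably expressing GHS-R1a, loaded 1 h at 37 °C with Calcium-3 dye; buffer HBSS/20 mM Hepes, pH 7.4, with probenecid and BSA. Agonists injected after 10 s baseline, read 50 s more; antagonists 3 min. Sigmoidal fits gave EC50 or IC50.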

CYP2D6 [3] = target: T3, CYP2D6 (Homo sapiens, UniProt P10635); experiment: Cytochrome P450 inhibition, Method B6; settings: read-out: IC50 CYP 2D6; Table 4b; dextromethorphan used as substrate
T3 sequence (P10635 whole entry): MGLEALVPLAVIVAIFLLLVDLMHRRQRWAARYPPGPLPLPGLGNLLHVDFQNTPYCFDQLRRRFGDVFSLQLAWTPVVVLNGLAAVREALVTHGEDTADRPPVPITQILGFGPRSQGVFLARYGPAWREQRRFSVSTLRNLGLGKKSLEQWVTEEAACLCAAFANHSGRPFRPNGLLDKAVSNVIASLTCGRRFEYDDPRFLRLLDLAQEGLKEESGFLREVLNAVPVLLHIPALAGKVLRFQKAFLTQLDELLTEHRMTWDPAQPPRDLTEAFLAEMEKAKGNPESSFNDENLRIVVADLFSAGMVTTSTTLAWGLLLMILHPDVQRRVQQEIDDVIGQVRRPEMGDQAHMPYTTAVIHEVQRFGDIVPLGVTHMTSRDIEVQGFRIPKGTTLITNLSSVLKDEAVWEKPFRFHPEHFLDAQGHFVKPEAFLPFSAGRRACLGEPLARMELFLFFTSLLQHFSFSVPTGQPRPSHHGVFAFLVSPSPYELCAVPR

CYP3A4 [4] = target: T4, CYP3A4 (Homo sapiens, UniProt P08684); experiment: Cytochrome P450 inhibition, Method B6 (two substrates); settings: read-out: IC50 CYP 3A4; Table 4b; midazolam used as substrate
T4 sequence (P08684 whole entry): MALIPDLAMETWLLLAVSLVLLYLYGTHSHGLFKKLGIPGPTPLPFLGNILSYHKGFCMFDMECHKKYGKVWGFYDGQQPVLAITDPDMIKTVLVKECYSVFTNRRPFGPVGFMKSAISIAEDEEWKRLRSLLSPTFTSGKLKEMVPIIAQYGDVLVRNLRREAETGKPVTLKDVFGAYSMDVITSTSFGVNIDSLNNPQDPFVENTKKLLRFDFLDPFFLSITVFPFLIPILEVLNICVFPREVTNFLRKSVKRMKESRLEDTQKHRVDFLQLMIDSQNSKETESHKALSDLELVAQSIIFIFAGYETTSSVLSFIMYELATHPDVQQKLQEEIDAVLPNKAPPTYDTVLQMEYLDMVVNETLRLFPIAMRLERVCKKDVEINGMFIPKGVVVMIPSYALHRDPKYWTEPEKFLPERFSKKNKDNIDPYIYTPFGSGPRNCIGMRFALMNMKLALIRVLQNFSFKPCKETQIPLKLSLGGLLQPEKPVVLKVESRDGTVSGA

[5] = Metabolic stability in human liver microsomes, Method B8; type: in vitro ADME; settings: human liver microsomes 0.8 mg/mL, 5 μM compound, 37° C.
Text: B8. Metabolic Stability in Human Liver Microsomes
The liver is the primary site for phase I (oxidation) and phase II (glucuronidation) enzymatic activity responsible for xenobiotic metabolism. Human liver microsomes are used as in vitro screen of metabolic activity for candidate drugs. Similar studies can be run with microsomes from other species, such as those used for in vivo studies, to determine any significant species differences in the stability profile. The aim of this study was to measure the broad-spectrum metabolic stability of representative compounds of the invention. The key aspects of the experimental design are summarized below: • Human liver microsomes (mixed pool of 15 male and female donors) were purchased from In Vitro Technologies (Baltimore, Md.). • Microsomes characterized for phase I (Cyp2A6, 2D6, 2E1, 1A2, 2C19, 3A4, 4A) and phase II (glucuronidation) enzymatic activity. • Assays are performed using a final concentration of 0.8 mg/mL of microsomes in 100 mM potassium phosphate buffer (1.5 mM NADPH, 8 mM MgCl2, pH 7.4, 37° C.). • Compounds are tested in duplicate samples at a single concentration of 5 μM (0.05% DMSO). • Test articles are incubated with the microsomes at 37° C.

[6] = tested on: rat stomach fundus strips; experiment: Ex-vivo potency evaluation on the rat stomach fundus (inhibition of ghrelin-induced contractility), Method B10; settings: EFS
Description: B10. Ex-vivo Potency Evaluation on the Rat Stomach Fundus
Fundus strips (approximately 0.4×1 cm) were cut from the stomach of adult male Wistar rats parallel to the circular muscle fibers. They were placed between two platinum ring electrodes, 1 cm apart (Radnoti, ADlnstruments, USA) in 10 ml tissue baths containing Krebs solution bubbled with 5% CO2 in O2 and maintained at 37° C. Tissues were suspended under 1.5 g resting tension. Changes of tension were measured isometrically with force transducers and recorded with a PowerLab 8/30 data acquisition system (ADlnstruments, USA). Tissues were allowed to equilibrate for 60 min during which time bath solutions were changed every 15 min.
EFS was achieved by applying 0.5 ms pulses, 5 Hz frequency, at a maximally effective voltage of 70 V. EFS was applied for 30 sec at 3 min intervals for a 30 min initial period. This initial period was separated by a […] interval with wash out of the bath solution. Then, a second period of stimulation was started. […] Responses to the agents were measured and expressed as % of the mean of three or four pre-drug responses to EFS. All compounds were dissolved at 1 mM in distilled water or MeOH, as stock solutions.
IC50 values for the inhibition of ghrelin-induced contractility by representative compounds of the invention are presented in Table 7.

CYP2D6 [7] = target: T3, CYP2D6; experiment: biochemical
CYP3A4 [8] = target: T4, CYP3A4; experiment: biochemical
[9] = target: T5, ghrelin receptor (HEK-GHSR1 stable cells) (Homo sapiens, UniProt Q92847); experiment: Ghrelin receptor inverse agonist assay (HTRF IP-one), Method B4; type: cell-based; settings: inverse agonist at the ghrelin receptor, Method B4
T5 construct: expressed in transfected cells
T5 sequence (Q92847 whole entry): as the sequence (Q92847 whole entry) above
Outline: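 HEK cells stably expressing GHSR1, seeded at 100 000 cells/well overnight, exposed to compound for 30 min at 37° C. Cells then lysed and IP1 accumulation measured by HTRF (d2 plus anti-IP1 cryptate, 1 h at room temp). Wells lacking d2 served as negative control.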

[10] = cited from earlier work
[11] = Ghrelin receptor binding activity, Method B1

CCC(C)[C@@H]1NCCOc2ccccc2/C=C/CNC(=O)[C@@H](Cc2ccccc2)NC(=O)[C@H](C(C)O)N(C)C1=O (some centres unmarked) [Compound 1318]
IC50 [1, 11]: 0.01 to 0.1 µM | Ki [1, 11]: 0.001 to 0.01 µM | Antagonist Activity [2]: C (C = 10-100 nM) | IC50 (CYP2D6 [3]): > 5 µM | IC50 (CYP3A4 [4]): 3.9 µM

CC(C)[C@@H]1NCCOc2ccccc2/C=C/CNC(=O)[C@@H](Cc2ccccc2)NC(=O)[C@H](C(C)O)N(C)C1=O (some centres unmarked) [Compound 1319]
IC50 [1]: 0.01 to 0.1 µM | Ki [1]: 0.001 to 0.01 µM | HLM, metabolic stability in human liver microsomes [5]: 26.5 μL/min/mg protein | IC50 [6]: 0.072 µM | IC50 (CYP2D6 [7]): 19.1 µM | IC50 (CYP3A4 [8]): 8 µM

COC(C)[C@@H]1NCCOc2ccccc2/C=C/CNC(=O)[C@@H](Cc2ccccc2)NC(=O)[C@H](C(C)O)N(C)C1=O (some centres unmarked) [Compound 1324]
Ki [1, 11]: 0.01 to 0.1 µM | Antagonist Activity [2]: D (D = 100-500 nM) | IC50 (CYP2D6 [3]): > 5 µM | IC50 (CYP3A4 [4]): > 5 µM

CCC(C)[C@@H]1NCCOc2ccccc2/C=C/CNC(=O)[C@@H](Cc2ccccc2F)NC(=O)[C@H](C(C)O)N(C)C1=O (some centres unmarked) [Compound 1325]
IC50 [1, 11]: 0.01 to 0.1 µM | Ki [1, 11]: 0.01 to 0.1 µM | Antagonist Activity [2]: C (C = 10-100 nM) | IC50 [6]: 0.029 µM | IC50 (CYP2D6 [3]): > 5 µM | IC50 (CYP3A4 [4]): > 3.1 µM

CCC(C)[C@@H]1NCCOc2ccccc2/C=C/CNC(=O)[C@@H](Cc2cccc(F)c2)NC(=O)[C@H](C(C)O)N(C)C1=O (some centres unmarked) [Compound 1326]
IC50 [1]: 0.01 to 0.1 µM | Ki [1]: 0.001 to 0.01 µM | Antagonist Activity [2]: C (C = 10-100 nM) | IC50 (CYP2D6 [7]): > 5 µM | IC50 (CYP3A4 [8]): 2.2 µM

CCC(C)[C@@H]1NCCOc2ccccc2/C=C/CNC(=O)[C@@H](Cc2ccc(C(F)(F)F)cc2)NC(=O)[C@H](C(C)O)N(C)C1=O (some centres unmarked) [Compound 1327]
IC50 [1]: 0.01 to 0.1 µM | Ki [1]: 0.001 to 0.01 µM | IC50 (CYP2D6 [7]): > 25 µM | IC50 (CYP3A4 [8]): > 17.7 µM

CCC(C)[C@@H]1NCCOc2ccccc2C[C@H](O)CNC(=O)[C@@H](Cc2ccccc2)NC(=O)[C@H](C(C)O)N(C)C1=O (some centres unmarked) [Compound 1340]
IC50 [1]: 0.01 to 0.1 µM | Ki [1]: 0.01 to 0.1 µM | IC50 (CYP2D6 [7]): 13.3 µM | IC50 (CYP3A4 [8]): 17.2 µM

CC(C)[C@@H]1NCCOc2ccccc2/C=C/CNC(=O)[C@@H](Cc2cccc(O)c2)NC(=O)[C@H](C(C)O)N(C)C1=O (some centres unmarked) [Compound 1350]
Antagonist Activity [2]: C (C = 10-100 nM) | IC50 (CYP2D6 [3]): 7.9 µM | IC50 (CYP3A4 [4]): 5.7 µM

CCC(C)[C@@H]1NCCOc2ccccc2CC[C@@H](C)NC(=O)[C@@H](Cc2ccccc2)NC(=O)[C@H](C(C)O)N(C)C1=O (some centres unmarked) [Compound 1358]
Antagonist Activity [2]: C (C = 10-100 nM) | IC50 (CYP2D6 [3]): > 20 µM | IC50 (CYP3A4 [4]): 1.6 µM

CC(C)[C@@H]1NCCOc2ccccc2CC[C@@H](C)NC(=O)[C@@H](Cc2c[nH]c3ccccc23)NC(=O)[C@H](C(C)O)N(C)C1=O (some centres unmarked) [Compound 1375]
Antagonist Activity [2]: B (B = 1-10 nM) | HLM, metabolic stability in human liver microsomes [5]: 58.4 μL/min/mg protein | IC50 (CYP2D6 [3]): > 20 µM | IC50 (CYP3A4 [4]): 8.8 µM

CC(C)[C@@H]1NCCOc2ccccc2CC[C@@H](C)NC(=O)[C@@H]([C@@H](C)c2ccccc2)NC(=O)[C@H](C(C)O)N(C)C1=O (some centres unmarked) [Compound 1390]
Antagonist Activity [2]: C (C = 10-100 nM) | HLM, metabolic stability in human liver microsomes [5]: 53 μL/min/mg protein | IC50 (CYP2D6 [7]): > 20 µM | IC50 (CYP3A4 [8]): 6.9 µM

CC(C)[C@@H]1NCCOc2ccccc2CC[C@@H](C)NC(=O)[C@@H](Cc2ccsc2)NC(=O)[C@H](C(C)O)N(C)C1=O (some centres unmarked) [Compound 1399]
Antagonist Activity [2]: B (B = 1-10 nM) | IC50 (CYP2D6 [3]): > 20 µM | IC50 (CYP3A4 [4]): 2.3 µM

CC(C)[C@@H]1NCCOc2ccccc2CC[C@@H](C)NC(=O)[C@@H](Cc2ccc3ccccc3n2)NC(=O)[C@H](C(C)O)N(C)C1=O (some centres unmarked) [Compound 1413]
Antagonist Activity [2]: B (B = 1-10 nM) | IC50 (CYP2D6 [3]): 14.7 µM | IC50 (CYP3A4 [4]): 1 µM

COc1ccccc1C[C@H]1NC(=O)[C@H](C(C)O)N(C)C(=O)[C@H](C(C)C)NCCOc2ccccc2CC[C@@H](C)NC1=O (some centres unmarked) [Compound 1418]
Antagonist Activity [2]: B (B = 1-10 nM) | HLM, metabolic stability in human liver microsomes [5]: 32.2 μL/min/mg protein | IC50 (CYP2D6 [3]): 14.5 µM | IC50 (CYP3A4 [4]): 0.9 µM

CC(C)[C@@H]1NCCOc2ccc(F)cc2CC[C@@H](C)NC(=O)[C@@H](Cc2c[nH]c3ccccc23)NC(=O)[C@H](C(C)O)N(C)C1=O (some centres unmarked) [Compound 1428]
IC50 (CYP2D6 [3]): 9.1 µM | IC50 (CYP3A4 [4]): 0.8 µM

CC(C)[C@@H]1NCCOc2cccc(F)c2CC[C@@H](C)NC(=O)[C@@H](Cc2c[nH]c3ccccc23)NC(=O)[C@H](C(C)O)N(C)C1=O (some centres unmarked) [Compound 1429]
IC50 (CYP2D6 [3]): > 20 µM | IC50 (CYP3A4 [4]): 0.7 µM

CC(C)[C@@H]1NCCOc2ccccc2/C=C/CNC(=O)[C@@H](Cc2cccc(Cl)c2)NC(=O)[C@H](C(C)O)N(C)C1=O (some centres unmarked) [Compound 1432]
Antagonist Activity [2]: B (B = 1-10 nM) | HLM, metabolic stability in human liver microsomes [5]: 25.1 μL/min/mg protein | IC50 (CYP2D6 [3]): 5.2 µM | IC50 (CYP3A4 [4]): 1.2 µM

CC(O)[C@H]1C(=O)N[C@H](Cc2ccc(Cl)cc2)C(=O)NC/C=C/c2ccccc2OCCN[C@@H](C2(C)CC2)C(=O)N1C (some centres unmarked) [Compound 1729]
IC50 [1, 11]: 0.001 to 0.01 µM | Antagonist Activity [2]: B (B = 1-10 nM) | IC50 [9]: 0.05 to 0.1 µM | HLM, metabolic stability in human liver microsomes [5]: 54.8 μL/min/mg protein | IC50 (CYP3A4 [4]): 1.9 µM

CC[C@@H]1NCCOc2ccccc2/C=C/CNC(=O)[C@@H](Cc2ccc(Cl)cc2)NC(=O)[C@H](C(C)O)N(C)C1=O (some centres unmarked) [Compound 1732]
IC50 [1, 11]: 0.01 to 0.1 µM | IC50 [9]: 0.1 to 0.5 µM | HLM, metabolic stability in human liver microsomes [5]: 52.2 μL/min/mg protein | IC50 (CYP3A4 [4]): 2.9 µM

C=C[C@H]1C[N@@]2CC[C@H]1C[C@H]2[C@H](O)c1ccnc2ccc(OC)cc12 [quinine]
known plasma protein binding value ([10]; reference controls): ~35%

CC(=O)CC(c1ccccc1)c1c(O)c2ccccc2oc1=O (centres unmarked) [warfarin]
known plasma protein binding value ([10]; plasma): ~98%
